pIC50: −log10 of the molar value.
Molecular target: T1, Histone deacetylase 6 (Homo sapiens, UniProt Q9UBN7)
T1 sequence (Q9UBN7 whole entry): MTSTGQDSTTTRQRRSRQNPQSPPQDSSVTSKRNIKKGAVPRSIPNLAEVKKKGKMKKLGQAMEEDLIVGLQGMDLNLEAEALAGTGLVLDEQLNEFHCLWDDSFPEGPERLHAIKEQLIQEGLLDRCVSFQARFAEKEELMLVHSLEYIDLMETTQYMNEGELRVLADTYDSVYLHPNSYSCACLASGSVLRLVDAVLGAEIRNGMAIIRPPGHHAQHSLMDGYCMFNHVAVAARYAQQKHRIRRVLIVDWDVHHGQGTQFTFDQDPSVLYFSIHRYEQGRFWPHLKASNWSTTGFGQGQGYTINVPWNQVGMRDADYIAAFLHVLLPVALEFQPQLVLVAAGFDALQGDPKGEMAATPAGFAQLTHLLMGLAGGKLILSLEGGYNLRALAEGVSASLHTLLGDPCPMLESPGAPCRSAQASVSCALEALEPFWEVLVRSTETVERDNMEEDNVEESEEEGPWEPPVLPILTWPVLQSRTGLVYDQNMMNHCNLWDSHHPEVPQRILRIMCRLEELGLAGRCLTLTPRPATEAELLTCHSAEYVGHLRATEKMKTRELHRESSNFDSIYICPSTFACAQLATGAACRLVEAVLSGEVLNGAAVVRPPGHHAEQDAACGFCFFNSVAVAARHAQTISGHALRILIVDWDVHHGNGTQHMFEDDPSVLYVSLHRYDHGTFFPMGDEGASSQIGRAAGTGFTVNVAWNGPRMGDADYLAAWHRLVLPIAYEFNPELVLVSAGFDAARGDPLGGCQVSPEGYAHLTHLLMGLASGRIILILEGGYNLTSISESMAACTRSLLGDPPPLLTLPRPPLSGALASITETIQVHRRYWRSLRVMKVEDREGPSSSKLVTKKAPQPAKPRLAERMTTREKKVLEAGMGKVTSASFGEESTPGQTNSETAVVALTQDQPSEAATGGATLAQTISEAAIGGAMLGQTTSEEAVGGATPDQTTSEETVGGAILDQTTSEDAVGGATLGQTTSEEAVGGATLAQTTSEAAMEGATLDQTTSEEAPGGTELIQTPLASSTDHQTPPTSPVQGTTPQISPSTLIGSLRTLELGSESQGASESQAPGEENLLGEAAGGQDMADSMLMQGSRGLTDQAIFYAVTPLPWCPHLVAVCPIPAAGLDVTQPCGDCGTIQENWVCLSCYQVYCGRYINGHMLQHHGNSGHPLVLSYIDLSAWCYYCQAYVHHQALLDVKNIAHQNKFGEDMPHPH
Assay: HDAC Activity Assay
Conditions: 25 °C
Method: The Fluor-de-Lys HDAC activity assay kit (Biomol) was used. Purified recombinant HDAC enzyme was incubated with Fluor-de-Lys substrate in the presence of test compounds. Fluor-de-Lys Developer was then added, and the mixture was incubated for another 10 min at room temperature. Fluorescence was measured using a fluorescent plate reader, with excitation 360 nm and emission 460 nm.

- pIC50: 5.38
SMILES: NC(=O)c1ccc(C(=O)C(F)(F)F)cn1 [5-(2,2,2-trifluoroacetyl)pyridine-2-carboxamide]
